In this experiment the target is T1, purified human 15-lipoxygenase (Homo sapiens, UniProt P16050).
T1 sequence (P16050 1-662): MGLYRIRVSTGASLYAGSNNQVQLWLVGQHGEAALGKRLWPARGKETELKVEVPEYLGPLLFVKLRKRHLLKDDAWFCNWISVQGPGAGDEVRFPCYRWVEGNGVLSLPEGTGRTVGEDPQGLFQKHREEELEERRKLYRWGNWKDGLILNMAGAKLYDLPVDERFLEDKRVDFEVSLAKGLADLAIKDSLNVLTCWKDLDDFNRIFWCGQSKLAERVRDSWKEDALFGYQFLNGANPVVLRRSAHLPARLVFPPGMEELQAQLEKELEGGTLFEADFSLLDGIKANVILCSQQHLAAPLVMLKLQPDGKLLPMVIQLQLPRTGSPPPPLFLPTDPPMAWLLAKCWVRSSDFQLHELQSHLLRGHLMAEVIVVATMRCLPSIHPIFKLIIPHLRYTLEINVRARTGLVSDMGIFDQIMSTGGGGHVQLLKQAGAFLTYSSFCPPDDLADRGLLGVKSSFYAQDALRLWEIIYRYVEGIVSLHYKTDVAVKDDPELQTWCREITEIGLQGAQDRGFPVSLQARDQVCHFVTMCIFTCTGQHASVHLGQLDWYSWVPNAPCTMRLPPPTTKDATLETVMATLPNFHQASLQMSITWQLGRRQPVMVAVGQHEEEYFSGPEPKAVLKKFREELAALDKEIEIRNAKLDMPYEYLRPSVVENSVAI
The experiment is described as follows: 15-lipoxygenase inhibition assay (arachidonic acid oxidation, HPLC readout). The class given is biochemical. Conditions: arachidonic acid substrate, room temperature. The method, then: The assay employed takes advantage of the ability of lipoxygenases to oxidize polyunsaturated fatty acids, containing a 1,4-cis-pentadiene configuration, to their corresponding hydroperoxy or hydroxyl derivatives. In this particular assay, the lipoxygenase was a purified human 15-lipoxygenase and the fatty acid was arachidonic acid. The assay is performed at room temperature (20-22° C.) and the following are added to each well in a 96-well microtiter plate:
a) 35 μL phosphate buffered saline (PBS) (pH 7.4); b) inhibitor (i.e. compound) or vehicle (0.5 μl DMSO); c) 10 μL of a 10× concentrated solution of 15-lipoxygenase in PBS. The plates are incubated for 5 minutes at room temperature; d) 5 μl of 0.125 mM arachidonic acid in PBS. The plate is then incubated for 10 minutes at room temperature; e) the enzymatic reaction is terminated by the addition of 100 μl methanol; and
f) the amount of 15-hydroperoxy-eicosatetraenoic acid or 15-hydroxy-eicosatetraenoic acid is measured by reverse phase HPLC.
What is called IC50 is the point on the concentration scale where inhibition reaches its midpoint. Read a low IC50 as higher potency. Take `Cc1ccc(NC(=O)c2cc[nH]n2)c(C)c1` [Example 14, N-(2,4-Dimethylphenyl)pyrazole-3-carboxamide]: the half-maximal inhibitory concentration (IC50) worked out at 840 nM.
The same measure for `Cc1cc(Cl)ccc1NC(=O)c1cc[nH]n1` [Example 9, N-(4-Chloro-2-methylphenyl)pyrazole-3-carboxamide]: 750 nM; for `O=C(Nc1ccc(Br)cc1OC(F)(F)F)c1cc[nH]n1` [Example 15, N-(4-Bromo-2-trifluoromethoxyphenyl)pyrazole-3-carboxamide]: 140 nM.
The figure for `O=C(Nc1ccc(F)c(F)c1F)c1cc[nH]n1` [Example 7, N-(2,3,4-Trifluorophenyl)pyrazole-3-carboxamide] is 1800 nM.
The same measure for `O=C(Nc1cc(Cl)ccc1Cl)c1cc[nH]n1` [Example 13, N-(2,5-Dichlorophenyl)pyrazole-3-carboxamide]: 1100 nM; for `O=C(Nc1ccc(OC(F)(F)F)cc1Br)c1cc[nH]n1` [Example 2, N-(2-Bromo-4-trifluoromethoxyphenyl)pyrazole-3-carboxamide]: 160 nM.

These data come from patent publication US20090088463A1, “Pyrazoles Useful in the Treatment of Inflammation” (priority 2005, published 2009).
